# Test results published in PMC10783087 (Microbiology Spectrum, 2023).
# Where “and” joins values, the source holds several entries; their conditions need not be identical. Identical values can stand only once. Like-named read-outs stand apart in the source and are kept apart here.
# Columns and labels:
# M. abscessus ATCC 19977 = assay: In vitro MIC against NTM, microbroth dilution; format: cell-based; conditions: 7 days
# Erdman = assay: microbe, parasite or virus in culture; format: cell-based; conditions: Mycobacterium tuberculosis
# Mtb [1] = conditions: earlier report; read-out: EC50 against Mtb in vitro; cited from earlier work
# [2] = test system: primary bone marrow-derived macrophages (BMMΦ); conditions: for Si (CC50/EC50): macrophage CC50 / in vitro Mtb EC50; for S.I. (CC50 / EC50): BMMΦ CC50 / ex vivo EC50, Table S1
# physchem = format: physicochemical; conditions: kinetic from dmso stock
# Experimental: The kinetic solubility assay was conducted as previously described ([18]). Briefly, using methods described by Bevan and Lloyd ([56]), the assay was performed with 7-point (twofold) dilutions of the compounds, from 200 to 3.125 μM along with mebendazole, bexarotene, and aspirin as controls. The drug dilutions were added to PBS, pH 7.4, with a DMSO concentration of 1% (final), and incubated at 37°C for 2 h. The absorbance at 620 nm was measured for each drug dilution to estimate the solubility of the compound in triplicate/ dilution.
# Mtb [3] = assay: microbe, parasite or virus in culture; format: cell-based, Mycobacterium tuberculosis; conditions: for EC50: read-out: In vitro EC50; for EC90: read-out: In vitro EC90
# [4] = test system: Mtb CDC1551 FFluc reporter strain in primary bone marrow-derived macrophages; parameters: method as in PMID 31405862; conditions: earlier report; read-out: EC50 against intracellular Mtb; cited from earlier work
# [5] = format: in vitro ADME, mouse
# Experimental: The mouse microsomal stability assay was conducted as described by Obach ([57]), and the results are presented as the percentages remaining after 30 min. Values greater than 100% are likely due to changes in the solubility of the compounds over the course of the assay and represent high stability in microsomes.
# [6] = test system: primary bone marrow-derived macrophages (BMMΦ); conditions: earlier report; cited from earlier work
# MAB = conditions: at 20 µM; cited from earlier work
# in vitro [7] = conditions: mouse
# H37Rv (ΔkatG) = format: cell-based
# H37Rv = assay: microbe, parasite or virus in culture; format: cell-based; conditions: Mycobacterium tuberculosis
# Mtb Erdman = format: in vivo, Mycobacterium tuberculosis; conditions: for median lung bacterial burden: C57Bl/6 mice, oral gavage 2 weeks; for median lung bacterial burden / colonies in spleens (dissemination): INH 25 mg/kg, MSU compounds 200 mg/kg
# [8] = test system: M. avium ATC 700891 (MAC 101); assay: In vitro MIC against NTM, microbroth dilution; format: cell-based; conditions: 7 days; for MIC: Mycobacterium avium, 168 h
# [9] = test system: Mtb CDC1551 FFluc reporter strain in primary bone marrow-derived macrophages; assay: microbe, parasite or virus in culture; format: cell-based; conditions: Mycobacterium tuberculosis, Macrophage; for EC90: read-out: ex vivo EC90
# in vitro [10] = format: cell-based; conditions: human, 24 h treatment
# Experimental: For additional cell lines including HepG2, HeLa, and THP-1, the following protocol was used. HepG2 (ATCC HB-8065) and HeLa (ATCC CCL-2) were cultured in cEMEM supplemented with 10% (vol/vol)/FBS and 1%(vol/vol) PenStrep. THP-1 cells were cultured in cRPMI-1640 medium (ATCC 30-2001) supplanted with 10% (vol/vol) FBS and 0.05 mM 2-mercaptoethanol (Sigma M3148). THP-1 cells were seeded in 96 well plates at 1 × 10^5 cells/mL with complete medium. HepG2 and HeLa cells were seeded in 96 well plates with cEMEM at 1 × 10^6 cells/mL. Cells were treated with compounds by dose response in a range of 128–0.48 µg/mL in triplicate or mitomycin C at a range of 128–0.0625 µM. Cells were treated for 24 h at 37°C with 5% CO2. Cells were then treated with either MTT or resazurin for 4 h. Absorbance was then measured at 570 nm for MTT plates. Percent cytotoxicity was calculated relative to positive mitomycin C and untreated controls. Percent cytotoxicity was used to calculate the IC50 using Graphpad prism software using non-linear regression analysis.
# [11] = format: in vivo, female C57Bl/6 mice; conditions: 200 mg/kg oral in corn oil
# Experimental: Female C57Bl/6 mice were dosed with 200 mg/kg (based on the average body mass of 27 mice) of MSU-43085, MSU-43165, or MSU-43170 formulated in corn oil by oral gavage. At 1-, 2-, and 4-h post treatment, blood samples were taken from three mice from each treatment group by cardiac puncture and placed in BD Lithium HeparinN Vacutainer tubes. Plasma was separated from whole blood by centrifuge, and compounds were methanol extracted. Lungs were harvested from mice 4- h post treatment. Lung samples were homogenized using a closed tissue grinder system (Fisherbrand—02-542-09), and compounds were methanol extracted from lung homogenates. Methanol-extracted samples were quantified by UPLC/MS/MS.
# Mtb [12] = conditions: cited from earlier work
# [13] = Mycobacteroides abscessus, ATCC19977, 168 h
# [14] = 37 °C, pH 2, aqueous buffer, Table S5, read-out: Kinetic solubility at pH 2.0
# [15] = 37 °C, pH 7.4, aqueous buffer, Table S5, read-out: Kinetic solubility at pH 7.4
# [16] = Mycobacterium tuberculosis, 144 h
# [17] = Table S5, % remaining after 30 minutes with mouse microsomes
# [18] = intracellular Mtb in BMMΦ, Table S1, read-out: ex vivo EC50
# [19] = intracellular Mtb in BMMΦ, Table S1
# [20] = read-out: HeLa Cytotoxicity (IC50)
# [21] = read-out: HepG2 Cytotoxicity (IC50)
# [22] = read-out: THP-1 Cytotoxicity (IC50)
# [23] = 37 °C, aqueous buffer, PBS pH 7.4, read-out: Kinetic solubility pH 7.4
# [24] = aqueous buffer, PBS pH 2.0, read-out: Kinetic solubility pH 2.0
# [25] = mouse microsomes, % remaining after 30 min
# [26] = read-out: intra-macrophage EC50
smiles,measurement,setting,value
NCC[C@H](O)C(=O)N[C@@H]1C[C@H](N)[C@@H](O[C@H]2O[C@H](CN)[C@@H](O)[C@H](O)[C@H]2O)[C@H](O)[C@H]1O[C@H]1O[C@H](CO)[C@@H](O)[C@H](N)[C@H]1O [Amikacin],MIC,M. abscessus ATCC 19977,6.8 µM
same,MIC,M. abscessus ATCC 19977; [13],6.8 µM
COc1nc2ccc(Br)cc2cc1[C@@H](c1ccccc1)[C@@](O)(CCN(C)C)c1cccc2ccccc12 [Bedaquiline],EC50,Erdman,0.22 µM
CC(C)/N=c1\cc2n(-c3ccc(Cl)cc3)c3ccccc3nc-2cc1Nc1ccc(Cl)cc1 [Clofazimine],EC50,Erdman,0.3 µM
CC(C)N(C(=O)CSc1nc2ccc(Cl)cc2[nH]1)C(C)C [HC2099],EC50,Mtb [1],1.7 µM
same,Si (CC50/EC50),[2],>13
same,solubility kinetic,physchem; [14],> 300 µM
same,solubility kinetic,physchem; [15],178 µM
same,EC50,Mtb [3]; [16],5.9 µM
same,EC90,Mtb [3]; [16],13.7 µM
same,EC50,[4],< 0.3 µM
same,Microsome Stability,[5]; [17],71%
same,cytotoxicity in macrophages,[6],no detectable cytotoxicity
same,inhibition of MAB growth in vitro,MAB,96.5%
same,CC50,in vitro [7],> 80 µM
Cc1ccc2nc(SCC(=O)N(C(C)C)C(C)C)[nH]c2c1 [HC2183],EC50,Mtb [1],3.2 µM
same,Si (CC50/EC50),[2],>11
same,solubility kinetic,physchem; [14],> 300 µM
same,solubility kinetic,physchem; [15],> 200 µM
same,EC50,Mtb [3]; [16],7.3 µM
same,EC90,Mtb [3]; [16],16 µM
same,EC50,[4],3 µM
same,Microsome Stability,[5]; [17],25%
same,cytotoxicity in macrophages,[6],no detectable cytotoxicity
same,CC50,in vitro [7],> 80 µM
NNC(=O)c1ccncc1 [Isoniazid],"MIC, H37Rv (ΔkatG)",H37Rv (ΔkatG),>14.5 µM
same,MIC,"H37Rv; read-out: MIC, H37Rv",0.2 µM
same,median lung bacterial burden,Mtb Erdman,no colonies were isolated
same,colonies in spleens (dissemination),Mtb Erdman,no colonies were isolated
Cc1cc2nc(SCC(=O)N(C(C)C)C(C)C)[nH]c2cc1C [MSU-42766],"MIC, H37Rv (ΔkatG)",H37Rv (ΔkatG),1.5 µM
same,"In vitro MIC, M. avium ATC 700891 (MAC 101)",[8],no detectable activity
same,MIC,[8],> 200 µM
same,MIC,"H37Rv; read-out: MIC, H37Rv",1.5 µM
same,MIC,H37Rv; read-out: activity (MIC) against WT,0.5 µg/mL
same,S.I. (CC50 / EC50),[2],> 195.6
same,Si (CC50/EC50),[2],>61
same,EC50,Mtb [3]; [16],1.3 µM
same,EC90,Mtb [3]; [16],8.2 µM
same,MIC,M. abscessus ATCC 19977,12 µM
same,MIC,M. abscessus ATCC 19977; [13],12 µM
same,EC50,Erdman,1.3 µM
same,CC50,in vitro [7],> 80 µM
same,EC50,[9]; [18],0.41 µM
same,EC90,[9]; [19],0.97 µM
same,IC50,in vitro [10]; [20],> 128 µg/mL
same,IC50,in vitro [10]; [21],> 128 µg/mL
same,IC50,in vitro [10]; [22],39.6 µg/mL
CC(C)N(C(=O)CNc1nc2cc(Cl)c(Cl)cc2[nH]1)C(C)C [MSU-43165],S.I. (CC50 / EC50),[2],> 596.6
same,Si (CC50/EC50),[2],>210
same,solubility kinetic,physchem; [23],> 150 µM
same,solubility kinetic,physchem; [24],> 300 µM
same,EC50,Mtb [3]; [16],0.38 µM
same,EC90,Mtb [3]; [16],0.628 µM
same,EC90,Mtb [3],0.63 µM
same,Microsome Stability,[5]; [17],106%
same,Microsome Stability,[5]; [25],106%
same,absolute difference of the median lung burden vs vehicle control,"Mtb Erdman; 200 mg/kg oral, 2 weeks, not significant (P > 0.99)",1.6 × 10^4 CFUs/mL
same,median lung bacterial burden,Mtb Erdman,5.7 × 10^3 CFUs/mL
same,colonies in spleens (dissemination),Mtb Erdman,colonies could also be detected
same,"Blood plasma concentration (1 h, fold EC50)",[11]; 1 h,1.3 fold EC50 and 1.3× fold EC50
same,CC50,in vitro [7],> 80 µM
same,EC50,[9]; [18],0.13 µM
same,EC90,[9]; [19],0.15 µM
same,EC50,[9]; [26],0.134 µM
CC(C)N(C(=O)COc1nc2cc(Cl)c(Cl)cc2[nH]1)C(C)C [MSU-43170],S.I. (CC50 / EC50),[2],> 2285
same,Si (CC50/EC50),[2],>667
same,solubility kinetic,physchem; [23],> 50 µM
same,solubility kinetic,physchem; [24],> 300 µM
same,EC50,Mtb [3]; [16],0.116 µM
same,EC90,Mtb [3]; [16],0.263 µM
same,EC50,Mtb [3],0.12 µM
same,EC90,Mtb [3],0.26 µM
same,Microsome Stability,[5]; [17],95%
same,Microsome Stability,[5]; [25],95%
same,"Blood plasma concentration (2 h, fold EC50)",[11]; 2 h time point (1 h unavailable),4 fold EC50 and 4× ^ a fold EC50
same,CC50,in vitro [7],> 80 µM
same,EC90,[9]; [19],0.14 µM
same,EC50,[9]; [26],0.035 µM
"CO[C@@]12[C@H](COC(N)=O)C3=C(C(=O)C(C)=C(N)C3=O)N1C[C@@H]1N[C@@H]12 [Mitomycin C, reference compound]",IC50,in vitro [10]; [20],10.5 µg/mL
same,IC50,in vitro [10]; [21],23 µg/mL
same,IC50,in vitro [10]; [22],3.09 µg/mL
COc1c(N2C[C@@H]3CCCN[C@@H]3C2)c(F)cc2c(=O)c(C(=O)O)cn(C3CC3)c12 [Moxifloxacin],"MIC, H37Rv (ΔkatG)",H37Rv (ΔkatG),0.15 µM
same,MIC,"H37Rv; read-out: MIC, H37Rv",0.15 µM
CC1(C)CCC(NC(=O)c2cc3c(Cl)cc(Cl)cc3[nH]2)CC1 [NITD-304],MIC,Mtb [12],0.02 µM
CC1(C)CCC(NC(=O)c2cc3c(F)cc(F)cc3[nH]2)CC1 [NITD-349],MIC,Mtb [12],0.03 µM
CO[C@H]1/C=C/O[C@@]2(C)Oc3c(C)c(O)c4c(O)c(c(/C=N/N5CCN(C)CC5)c(O)c4c3C2=O)NC(=O)/C(C)=C\C=C\[C@H](C)[C@H](O)[C@@H](C)[C@@H](O)[C@@H](C)[C@H](OC(C)=O)[C@@H]1C [Rifampicin],MIC,[8],0.07 µM
